Results taken from US20030186967A1, “Acylresorcinol derivatives are selective vitronectin receptor inhibitors” (American Home Products Corporation, priority 1998, published 2003).

Target: T1, Vitronectin receptor αVβ3 (Homo sapiens, UniProt P05106+P06756)
T1 construct: expressed in transfected cells; host or cells: 512P5 cells (plasma membrane preparation)
Test: Vitronectin Receptor αVβ3 Binding Assay
Conditions: read-out: VnR (IC50μM)

T1 sequence (P06756 31-889 limits assumed): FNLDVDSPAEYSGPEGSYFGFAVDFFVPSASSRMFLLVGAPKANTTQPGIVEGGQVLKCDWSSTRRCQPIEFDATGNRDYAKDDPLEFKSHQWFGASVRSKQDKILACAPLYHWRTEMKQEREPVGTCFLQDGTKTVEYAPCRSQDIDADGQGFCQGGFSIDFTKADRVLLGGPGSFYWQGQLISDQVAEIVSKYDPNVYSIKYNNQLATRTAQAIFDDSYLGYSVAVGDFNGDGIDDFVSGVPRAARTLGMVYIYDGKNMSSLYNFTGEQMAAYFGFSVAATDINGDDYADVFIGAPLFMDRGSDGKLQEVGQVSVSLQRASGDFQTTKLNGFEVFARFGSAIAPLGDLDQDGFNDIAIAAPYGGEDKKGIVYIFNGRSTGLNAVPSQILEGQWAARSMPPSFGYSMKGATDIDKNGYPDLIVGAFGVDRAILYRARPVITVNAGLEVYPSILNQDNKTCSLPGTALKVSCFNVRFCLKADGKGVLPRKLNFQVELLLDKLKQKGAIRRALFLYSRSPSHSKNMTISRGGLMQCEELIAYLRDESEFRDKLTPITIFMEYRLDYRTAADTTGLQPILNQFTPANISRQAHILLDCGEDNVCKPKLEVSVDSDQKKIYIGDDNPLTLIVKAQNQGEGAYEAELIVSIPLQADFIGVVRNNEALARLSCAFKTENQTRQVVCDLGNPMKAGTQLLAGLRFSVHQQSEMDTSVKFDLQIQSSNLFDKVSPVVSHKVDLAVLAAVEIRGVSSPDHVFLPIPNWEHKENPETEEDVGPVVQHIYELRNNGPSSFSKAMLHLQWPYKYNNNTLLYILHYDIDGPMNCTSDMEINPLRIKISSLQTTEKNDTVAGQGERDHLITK
T1 sequence (P06756 891-1048 partner limits assumed): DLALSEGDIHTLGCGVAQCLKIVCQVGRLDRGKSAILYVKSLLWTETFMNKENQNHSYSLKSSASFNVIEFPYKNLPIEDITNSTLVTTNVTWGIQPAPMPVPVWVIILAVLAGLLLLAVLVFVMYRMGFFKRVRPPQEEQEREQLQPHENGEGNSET
T1 sequence (P05106 27-788): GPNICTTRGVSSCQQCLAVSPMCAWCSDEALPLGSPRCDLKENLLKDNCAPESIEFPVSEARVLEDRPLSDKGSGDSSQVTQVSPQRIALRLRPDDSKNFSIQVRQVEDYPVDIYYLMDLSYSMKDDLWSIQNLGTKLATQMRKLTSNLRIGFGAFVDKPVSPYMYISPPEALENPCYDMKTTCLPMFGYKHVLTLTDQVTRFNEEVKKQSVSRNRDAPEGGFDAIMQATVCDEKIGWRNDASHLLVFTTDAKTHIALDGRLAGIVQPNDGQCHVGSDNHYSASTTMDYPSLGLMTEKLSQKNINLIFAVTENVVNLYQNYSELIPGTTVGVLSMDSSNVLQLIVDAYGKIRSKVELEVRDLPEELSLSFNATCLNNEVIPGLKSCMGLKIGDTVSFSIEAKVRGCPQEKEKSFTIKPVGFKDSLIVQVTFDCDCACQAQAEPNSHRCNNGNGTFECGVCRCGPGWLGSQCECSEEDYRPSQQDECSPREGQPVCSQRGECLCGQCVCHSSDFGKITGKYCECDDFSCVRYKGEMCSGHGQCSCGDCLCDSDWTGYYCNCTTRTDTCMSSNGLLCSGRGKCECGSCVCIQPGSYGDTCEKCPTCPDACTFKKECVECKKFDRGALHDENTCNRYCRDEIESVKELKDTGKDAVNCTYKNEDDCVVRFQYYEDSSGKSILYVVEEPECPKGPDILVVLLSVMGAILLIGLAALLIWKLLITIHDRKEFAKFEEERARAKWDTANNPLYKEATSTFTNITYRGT

Row | IC50 [µM] | SMILES
1 | 0.0241 | CC(C)(C)COC(=O)N[C@@H](CNC(=O)c1ccc(OCCNC2=NCCCN2)cc1O)C(=O)O [Example 1, (2S)-3-({2-hydroxy-4-[2-(1,4,5,6-tetrahydropyrimidin-2-ylamino)ethoxy]benzoyl}amino)-2-{[(neopentyloxy)carbonyl]amino}propanoic acid]
2 | 0.187 | COC(=O)N[C@@H](CNC(=O)c1ccc(OCCNC2=NCCCN2)cc1O)C(=O)O [Example 2, (2S)-3-({2-hydroxy-4-[2-(1,4,5,6-tetrahydropyrimidin-2-ylamino)ethoxy]benzoyl}-amino)-2-[(methoxycarbonyl)amino]propanoic acid]
3 | 0.123 | CCOC(=O)N[C@@H](CNC(=O)c1ccc(OCCNC2=NCCCN2)cc1O)C(=O)O [Example 3, (2S)-2-[(ethoxycarbonyl)amino]-3-({2-hydroxy-4-[2-(1,4,5,6-tetrahydropyrimidin-2ylamino)ethoxy]benzoyl}amino)propanoic acid]
4 | 0.095 | CCCOC(=O)N[C@@H](CNC(=O)c1ccc(OCCNC2=NCCCN2)cc1O)C(=O)O [Example 4, (2S)-3-({2-hydroxy-4-[2-(1,4,5,6-tetrahydropyrimidin-2-ylamino)ethoxy]benzoyl}-amino)-2-[(propoxycarbonyl)amino]propanoic acid]
5 | 0.108 | C=CCOC(=O)N[C@@H](CNC(=O)c1ccc(OCCNC2=NCCCN2)cc1O)C(=O)O [Example 6, (2S)-2-{[(allyloxy)carbonyl]amino}-3-({2-hydroxy-4-[2-(1,4,5,6-tetrahydropyrimidin-2-ylamino)ethoxy]benzoyl}amino)propanoic acid]
6 | 0.092 | C=CCCOC(=O)N[C@@H](CNC(=O)c1ccc(OCCNC2=NCCCN2)cc1O)C(=O)O [Example 7, (2S)-2-{[(but-3-enyloxy)carbonyl]amino}-3-({2-hydroxy-4-[2-(1,4,5,6-tetrahydropyrimidin-2-ylamino)ethoxy]benzoyl}amino)propanoic acid]
7 | 0.061 | O=C(N[C@@H](CNC(=O)c1ccc(OCCNC2=NCCCN2)cc1O)C(=O)O)OCC(Cl)(Cl)Cl [Example 10, (2S)-3-({2-hydroxy-4-[2-(1,4,5,6-tetrahydropyrimidin-2-ylamino)ethoxy]-benzoyl}amino)-2-{[(2,2,2-trichloroethoxy)carbonyl]amino}propanoic acid]
8 | 0.183 | C#CCOC(=O)N[C@@H](CNC(=O)c1ccc(OCCNC2=NCCCN2)cc1O)C(=O)O [Example 13, (2S)-3-({2-hydroxy-4-[2-(1,4,5,6-tetrahydropyrimidin-2-ylamino)ethoxy]benzoyl}-amino)-2-{[(prop-2-ynyloxy)carbonyl]amino}propanoic acid]

Further lines, the compound ahead of its results:

Row | SMILES | IC50 [µM]
9 | CC(C)OC(=O)N[C@@H](CNC(=O)c1ccc(OCCNC2=NCCCN2)cc1O)C(=O)O [Example 5, (2S)-3-({2-hydroxy-4-[2-(1,4,5,6-tetrahydropyrimidin-2-ylamino)ethoxy]benzoyl}-amino)-2-[(isopropoxycarbonyl)amino]propanoic acid] | 0.061
10 | CCCCCCOC(=O)N[C@@H](CNC(=O)c1ccc(OCCNC2=NCCCN2)cc1O)C(=O)O [Example 8, (2S)-2-{[(hexyloxy)carbonyl]amino}-3-({2-hydroxy-4-[2-(1,4,5,6-tetrahydropyrimidin-2-ylamino)ethoxy]benzoyl}amino)propanoic acid] | > 1
11 | CCCCCCCCOC(=O)N[C@@H](CNC(=O)c1ccc(OCCNC2=NCCCN2)cc1O)C(=O)O [Example 9, (2S)-3-({2-hydroxy-4-[2-(1,4,5,6-tetrahydropyrimidin-2-ylamino)ethoxy]benzoyl}-amino)-2-{[(octyloxy)carbonyl]amino}propanoic acid] | 0.11
12 | CCCCOC(=O)N[C@@H](CNC(=O)c1ccc(OCCNC2=NCCCN2)cc1O)C(=O)O [Example 11, (2S)-3-({2-hydroxy-4-[2-(1,4,5,6-tetrahydropyrimidin-2-ylamino)ethoxy]-benzoyl}amino)-2-[(butoxycarbonyl)amino]propanoic acid] | 0.0696
13 | CC(C)COC(=O)N[C@@H](CNC(=O)c1ccc(OCCNC2=NCCCN2)cc1O)C(=O)O [Example 12, (2S)-3-({2-hydroxy-4-[2-(1,4,5,6-tetrahydropyrimidin-2-ylamino)ethoxy]benzoyl}-amino)-2-[(isobutoxycarbonyl)amino]propanoic acid] | 0.0661
14 | O=C(N[C@@H](CNC(=O)c1ccc(OCCNC2=NCCCN2)cc1O)C(=O)O)OCc1ccccc1 [Example 14, (2S)-2-{[(benzyloxy)carbonyl]amino}-3-({2-hydroxy-4-[2-(1,4,5,6-tetrahydropyrimidin-2-ylamino)ethoxy]benzoyl}amino)propanoic acid] | 0.0445
15 | O=C(Nc1ccccc1)N[C@@H](CNC(=O)c1ccc(OCCNC2=NCCCN2)cc1O)C(=O)O [Example 20, (2S)-2-[(anilinocarbonyl)amino]-3-({2-hydroxy-4-[2-(1,4,5,6-tetrahydropyrimidin-2-ylamino)ethoxy]benzoyl}amino)propanoic acid] | 1.44
16 | O=C(NC1CCCCC1)N[C@@H](CNC(=O)c1ccc(OCCNC2=NCCCN2)cc1O)C(=O)O [Example 21, (2S)-2-{[(cyclohexylamino)carbonyl]amino}-3-({2-hydroxy-4-[2-(1,4,5,6-tetrahydropyrimidin-2-ylamino)ethoxy]benzoyl}amino)propanoic acid] | 1.52
17 | Cc1ccc(NC(=O)N[C@@H](CNC(=O)c2ccc(OCCNC3=NCCCN3)cc2O)C(=O)O)cc1 [Example 23, (2S)-3-({2-hydroxy-4-[2-(1,4,5,6-tetrahydropyrimidin-2-ylamino)ethoxy]benzoyl}-amino)-2-[(4-toluidinocarbonyl)amino]propanoic acid] | 1.02
18 | Cc1ccccc1NC(=O)N[C@@H](CNC(=O)c1ccc(OCCNC2=NCCCN2)cc1O)C(=O)O [Example 24, (2S)-3-({2-hydroxy-4-[2-(1,4,5,6-tetrahydropyrimidin-2-ylamino)ethoxy]benzoyl}-amino)-2-[(2-toluidinocarbonyl)amino]propanoic acid] | 1.48
19 | COc1ccccc1NC(=O)N[C@@H](CNC(=O)c1ccc(OCCNC2=NCCCN2)cc1O)C(=O)O [Example 25, (2S)-3-({2-hydroxy-4-[2-(1,4,5,6-tetrahydropyrimidin-2-ylamino)ethoxy]benzoyl}-amino)-2-{[(2-methoxyanilino)carbonyl]amino}propanoic acid] | 0.674
20 | O=C(Nc1ccccc1Cl)N[C@@H](CNC(=O)c1ccc(OCCNC2=NCCCN2)cc1O)C(=O)O [Example 27, (2S)-2-{[(2-chloroanilino)carbonyl]amino}-3-({2-hydroxy-4-[2-(1,4,5,6-tetrahydropyrimidin-2-ylamino)ethoxy]benzoyl}amino)propanoic acid] | 0.331
21 | O=C(Nc1ccccc1Br)N[C@@H](CNC(=O)c1ccc(OCCNC2=NCCCN2)cc1O)C(=O)O [Example 28, (2S)-2-{[(2-bromoanilino)carbonyl]amino}-3-({2-hydroxy-4-[2-(1,4,5,6-tetrahydropyrimidin-2-ylamino)ethoxy]benzoyl}amino)propanoic acid] | 0.159
22 | O=C(Nc1ccccc1-c1ccccc1)N[C@@H](CNC(=O)c1ccc(OCCNC2=NCCCN2)cc1O)C(=O)O [Example 29, (2S)-2-{[([1,1′-biphenyl]-2-ylamino)carbonyl]amino}-3-({2-hydroxy-4-[2-(1,4,5,6-tetrahydropyrimidin-2-ylamino)ethoxy]benzoyl}amino)propanoic acid] | 0.405
